# Assay results published in patent EP0207497A2, “Quinolonecarboxylic acid derivative and process for its preparation” (KYORIN PHARMACEUTICAL CO., LTD., priority 1985, dated 1987).
# How the values were obtained:
# Type in all cases: cell-based
# [1] = test system: Bacillus subtilis PCI 219; experiment: Antibacterial spectrum, MIC determination (method of Japan Society of Chemotherapy); conditions: PCI219; Bacillus subtilis PCI 219, Gram +, 10^6 cells/ml; read-out: MIC
# [2] = test system: Staphylococcus aureus 209 P; experiment: as above; conditions: Staphylococcus aureus 209 P, Gram +, 10^6 cells/ml; read-out: MIC
# [3] = test system: S. aureus Smith; experiment: as above; conditions: Staphylococcus aureus; S. aureus Smith, Gram +, 10^6 cells/ml; read-out: MIC
# [4] = test system: S. aureus IID 670 (Terajima); experiment: as above; conditions: Staphylococcus aureus, IID670; S. aureus IID 670 (Terajima), Gram +, 10^6 cells/ml; read-out: MIC
# [5] = test system: S. epidermidis IID 866; experiment: as above; conditions: Staphylococcus epidermidis, IID866; S. epidermidis IID 866, Gram +, 10^6 cells/ml; read-out: MIC
# [6] = test system: Streptococcus pyogenes (S-8); experiment: as above; conditions: Streptococcus pyogenes (S-8), Gram +, 10^6 cells/ml; read-out: MIC
# [7] = test system: S. pyogenes IID 692; experiment: as above; conditions: Streptococcus pyogenes, IID692; S. pyogenes IID 692, Gram +, 10^6 cells/ml
# [8] = test system: S. pneumoniae IID 552; experiment: as above; conditions: Streptococcus pneumoniae, IID552; S. pneumoniae IID 552, Gram +, 10^6 cells/ml
# [9] = test system: E. faecalis IID 682; experiment: as above; conditions: Enterococcus faecalis, IID682; E. faecalis IID 682, Gram +, 10^6 cells/ml
# [10] = test system: Escherichia coli NIHJ JC-2; experiment: as above; conditions: NIHJJC2; Escherichia coli NIHJ JC-2, Gram -, 10^6 cells/ml
# [11] = test system: E. coli ATCC 10536; experiment: as above; conditions: Escherichia coli, ATCC10536; E. coli ATCC 10536, Gram -, 10^6 cells/ml; read-out: MIC
# [12] = test system: E. coli ML 4707; experiment: as above; conditions: Escherichia coli, ML4707; E. coli ML 4707, Gram -, 10^6 cells/ml; read-out: MIC
# [13] = test system: Proteus vulgaris IFO 3167; experiment: as above; conditions: IFO3167; Proteus vulgaris IFO 3167, Gram -, 10^6 cells/ml; read-out: MIC
# [14] = test system: P. mirabilis IID 994; experiment: as above; conditions: Proteus mirabilis, IID994; P. mirabilis IID 994, Gram -, 10^6 cells/ml; read-out: MIC
# [15] = test system: Morganella morganii IID 602; experiment: as above; conditions: IID602; Morganella morganii IID 602, Gram -, 10^6 cells/ml
# [16] = test system: Klebsiella pneumoniae KY(GN)6445; experiment: as above; conditions: Klebsiella pneumoniae KY(GN)6445, Gram -, 10^6 cells/ml; read-out: MIC
# [17] = test system: K. pneumoniae 1-220S; experiment: as above; conditions: Klebsiella pneumoniae, 1220S; K. pneumoniae 1-220S, Gram -, 10^6 cells/ml; read-out: MIC
# [18] = test system: Enterobacter cloacae IID 977; experiment: as above; conditions: IID977; Enterobacter cloacae IID 977, Gram -, 10^6 cells/ml
# [19] = test system: Citrobacter freundii IID 976; experiment: as above; conditions: IID976; Citrobacter freundii IID 976, Gram -, 10^6 cells/ml; read-out: MIC
# [20] = test system: Serratia marcescens IID 618; experiment: as above; conditions: IID618; Serratia marcescens IID 618, Gram -, 10^6 cells/ml; read-out: MIC
# [21] = test system: Shigella sonnei IID 969; experiment: as above; conditions: IID969; Shigella sonnei IID 969, Gram -, 10^6 cells/ml
# Method: Minimal inhibitory concentrations (MICs) were determined in accordance with the method recommended by Japan Society of Chemotherapy.
# [22] = test system: Salmonella enteritidis IID 604; experiment: as above; conditions: Salmonella enterica; Salmonella enteritidis IID 604, Gram -, 10^6 cells/ml; read-out: MIC
# [23] = test system: Pseudomonas aeruginosa V-1; experiment: as above; conditions: V1; Pseudomonas aeruginosa V-1, Gram -, 10^6 cells/ml
# [24] = test system: P. aeruginosa IFO 12689; experiment: as above; conditions: Pseudomonas aeruginosa, IFO12689; P. aeruginosa IFO 12689, Gram -, 10^6 cells/ml
# [25] = test system: P. aeruginosa IID 1210; experiment: as above; conditions: Pseudomonas aeruginosa, IID1210; P. aeruginosa IID 1210, Gram -, 10^6 cells/ml
# [26] = test system: P. cepacia GIFU 518; experiment: as above; conditions: Burkholderia cepacia, GIFU518; P. cepacia GIFU 518, Gram -, 10^6 cells/ml; read-out: MIC
# [27] = test system: P. maltophilia GIFU 2491; experiment: as above; conditions: Stenotrophomonas maltophilia, GIFU2491; P. maltophilia GIFU 2491, Gram -, 10^6 cells/ml; read-out: MIC
# [28] = test system: Yersinia enterocolitica IID 981; experiment: as above; conditions: IID981; Yersinia enterocolitica IID 981, Gram -, 10^6 cells/ml; read-out: MIC
# [29] = test system: Acinetobacter anitratus IID 876; experiment: as above; conditions: Acinetobacter calcoaceticus, IID876; Acinetobacter anitratus IID 876, Gram -, 10^6 cells/ml; read-out: MIC
# [30] = test system: Alcaligenes faecalis 0114002; experiment: as above; conditions: Alcaligenes faecalis 0114002, Gram -, 10^6 cells/ml
# [31] = test system: Bacteroides fragilis GM 7000; experiment: as above; conditions: GM7000; Bacteroides fragilis GM 7000, Gram -, 10^6 cells/ml; read-out: MIC
# [32] = test system: B. fragilis 0558; experiment: as above; conditions: Bacteroides fragilis; B. fragilis 0558, Gram -, 10^6 cells/ml; read-out: MIC
# [33] = test system: B. fragilis 25285; experiment: as above; conditions: Bacteroides fragilis; B. fragilis 25285, Gram -, 10^6 cells/ml; read-out: MIC
# [34] = test system: B. distasonis 8503; experiment: as above; conditions: Parabacteroides distasonis; B. distasonis 8503, Gram -, 10^6 cells/ml; read-out: MIC
# [35] = test system: B. thetaiotaomicron (0661); experiment: as above; conditions: Bacteroides thetaiotaomicron; B. thetaiotaomicron (0661), Gram -, 10^6 cells/ml; read-out: MIC
# [36] = test system: B. vulgatus KYA 29327; experiment: as above; conditions: Phocaeicola vulgatus, KYA29327; B. vulgatus KYA 29327, Gram -, 10^6 cells/ml; read-out: MIC
# [37] = test system: Fusobacterium mortiferum 4249; experiment: as above; conditions: Fusobacterium mortiferum 4249, Gram -, 10^6 cells/ml; read-out: MIC
# [38] = test system: F. necrophorum S-45; experiment: as above; conditions: Fusobacterium necrophorum, S45; F. necrophorum S-45, Gram -, 10^6 cells/ml
# [39] = test system: F. varium KYA 8501; experiment: as above; conditions: Fusobacterium varium, KYA8501; F. varium KYA 8501, Gram -, 10^6 cells/ml
# [40] = test system: Eubacterium lentum GAI 5242; experiment: as above; conditions: Eggerthella lenta, GAI5242; Eubacterium lentum GAI 5242, Gram +, 10^6 cells/ml
# [41] = test system: Propionibacterium acens 11828; experiment: as above; conditions: Propionibacterium acens 11828, Gram +, 10^6 cells/ml; read-out: MIC
# [42] = test system: Peptococcus magnus KY 017; experiment: as above; conditions: Finegoldia magna, KY017; Peptococcus magnus KY 017, Gram +, 10^6 cells/ml; read-out: MIC
# [43] = test system: Clostridium difficile I-E; experiment: as above; conditions: Clostridioides difficile, Gram +, 10^6 cells/ml
# [44] = test system: C. perfringens KYA 13123; experiment: microbe, parasite or virus in culture; conditions: Clostridium perfringens, KYA13123
# [45] = test system: C. ramosum; experiment: Antibacterial spectrum, MIC determination (method of Japan Society of Chemotherapy); conditions: Thomasclavelia ramosa; C. ramosum, Gram +, 10^6 cells/ml; read-out: MIC
# [46] = test system: Peptostreptococcus anaerobius KYA 27337; experiment: as above; conditions: KYA27337; Peptostreptococcus anaerobius KYA 27337, Gram +, 10^6 cells/ml; read-out: MIC
# [47] = test system: Pst. micros UPI 5464-1; experiment: as above; conditions: Parvimonas micra, UPI54641; Pst. micros UPI 5464-1, Gram +, 10^6 cells/ml
# [48] = test system: Veillonella parvula KYA 10790; experiment: as above; conditions: KYA10790; Veillonella parvula KYA 10790, Gram -, 10^6 cells/ml
compound,measurement,setting,value
"NC1CCN(c2c(F)cc3c(=O)c(C(=O)O)cn(C4CC4)c3c2Br)C1 (stereo not drawn) [Exp. 1, 7-(3-Amino-1-pyrrolidinyl)-8-bromo-1-cyclopropyl-6-fluoro-1,4-dihydro-4-oxo-3-quinolinecarboxylic acid]",MIC,[1],0.025 µg/mL
same,MIC,[2],0.05 µg/mL
same,MIC,[3],0.05 µg/mL
same,MIC,[4],0.05 µg/mL
same,MIC,[5],0.1 µg/mL
same,MIC,[6],0.1 µg/mL
same,MIC,[7],0.2 µg/mL
same,MIC,[8],0.1 µg/mL
same,MIC,[9],0.1 µg/mL
same,MIC,[10],0.0063 µg/mL
same,MIC,[11],0.0125 µg/mL
same,MIC,[12],0.0125 µg/mL
same,MIC,[13],0.0125 µg/mL
same,MIC,[14],0.0125 µg/mL
same,MIC,[15],0.05 µg/mL
same,MIC,[16],0.0125 µg/mL
same,MIC,[17],0.025 µg/mL
same,MIC,[18],0.025 µg/mL
same,MIC,[19],0.025 µg/mL
same,MIC,[20],0.05 µg/mL
same,MIC,[21],0.0063 µg/mL
same,MIC,[22],0.025 µg/mL
same,MIC,[23],0.2 µg/mL
same,MIC,[24],0.39 µg/mL
same,MIC,[25],0.78 µg/mL
same,MIC,[26],0.39 µg/mL
same,MIC,[27],0.05 µg/mL
same,MIC,[28],0.025 µg/mL
same,MIC,[29],0.05 µg/mL
same,MIC,[30],0.1 µg/mL
same,MIC,[31],0.1 µg/mL
same,MIC,[32],0.1 µg/mL
same,MIC,[33],0.1 µg/mL
same,MIC,[34],0.39 µg/mL
same,MIC,[35],0.2 µg/mL
same,MIC,[36],0.2 µg/mL
same,MIC,[37],0.2 µg/mL
same,MIC,[38],0.2 µg/mL
same,MIC,[39],0.78 µg/mL
same,MIC,[40],0.1 µg/mL
same,MIC,[41],1.56 µg/mL
same,MIC,[42],0.1 µg/mL
same,MIC,[43],0.78 µg/mL
same,MIC,[44],0.2 µg/mL
same,MIC,[45],1.56 µg/mL
same,MIC,[46],0.2 µg/mL
same,MIC,[47],0.1 µg/mL
same,MIC,[48],0.1 µg/mL
